The compounds below were run against T1, human apelin receptor (APJ, AGTRL-one, APLNR) (Homo sapiens, UniProt P35414) (assay: cell-based cAMP TR-FRET assay of apelin receptor activation). Conditions: CHO cells expressing human APJ, forskolin-stimulated cAMP, 0.5 h incubation, 50% of control (apelin-13, 1 nM) response; read-out: Potency Category (EC50).
T1 construct: host or cells: Chinese hamster ovary cells, stably integrated receptor
T1 sequence (P35414 1-380): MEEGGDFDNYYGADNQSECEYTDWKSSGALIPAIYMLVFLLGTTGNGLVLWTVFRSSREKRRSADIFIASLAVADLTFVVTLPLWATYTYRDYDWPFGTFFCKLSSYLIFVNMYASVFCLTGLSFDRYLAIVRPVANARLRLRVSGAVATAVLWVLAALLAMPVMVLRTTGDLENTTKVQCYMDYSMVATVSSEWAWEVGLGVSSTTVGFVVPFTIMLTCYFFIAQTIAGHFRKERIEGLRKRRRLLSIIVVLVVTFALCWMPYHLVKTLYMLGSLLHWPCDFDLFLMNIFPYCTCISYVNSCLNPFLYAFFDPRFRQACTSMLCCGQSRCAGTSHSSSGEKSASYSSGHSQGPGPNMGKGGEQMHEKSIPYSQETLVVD
Experimental: The assays disclosed herein were performed using cell lines from DiscoveX, Inc. Biological activity was determined to the cell—based assay. This assay detects activation of the receptor by reporting on intracellular cyclic adenosine monophosphate (cAMP) level. Chinese hamster ovary cells engineered to express the stably integrated human apelin receptor (APJ, AGTRL—one, APLNR), pleaded into the wells of the microtiter plate. Cells were stimulated with […] to increase intracellular cyclic AMP. Immediately following, compounds were added to the range of final concentrations 0.0-100 μM, in DMSO (not to exceed a final DMSO concentration greater than 1% ν/ν), and allowed to incubate with the cells for 0.5 h. At the end of the incubation, cells were lysed to stop APJ signaling and cAMP was quantified using a commercially available competitive immunoassay kit that applies homogenous time—resolved florescence energy transfer (TR—FRET). The assay is based on the competition between a europium (Eu) chelate—labeled cAMP donor tracer and cellular cAMP for binding sites on a cAMP—specific monoclonal antibody labeled with an acceptor fluorophore. When antibodies are bound to the cAMP tracer light emissions at 320 nm stimulate the energy transfer from the donor to the acceptor, which in turn emits light at 665 nm. In the presence of competitive unlabeled cAMP (derived from the activity of the receptor or forskolin-stimulated production of cAMP), the labelled cAMP tracer is dissociated from the cAMP antibody, resulting in a loss of FRET signal. The amount of light emitted by the FRET is inversely proportional to the cAMP generated by the cell/receptor system. Potency and efficacy at APJ are reported in reference to the canonical APJ receptor agonist apelin—13 when tested at 1 nM. […] Compound efficacy (% response) is reported as a percentage of the maximal apein-13 response at 1 nM (control). Potencies were calculated by fitting a […] logistic curve to concentration response consisting of at least 10 discrete data points spanning effective range of the compounds in the cell-based assay that measures cAMP. […] Category B is 200-500 nM; Category C is 100-200 nM; Category D is 50-100 nM; and Category E is <50 nM.

Structure (SMILES)	EC50 [nM]
COc1cc2nc(NC(=O)Cc3cccc(C(=O)O)c3)sc2cc1OC	> 500
COc1cc2nc(NC(=O)C(Oc3ccc(C#N)cc3)c3cccc(Br)c3)sc2cc1OC (centres unmarked)	> 500
CCS(=O)(=O)c1ccc(C(Nc2cccc(C)c2)C(=O)Nc2nc3cc(OC)c(OC)cc3s2)cc1 (centres unmarked)	> 500
CCS(=O)(=O)c1ccc(C(Oc2ccc(C#N)cc2)C(=O)Nc2nc3cnc(OC)cc3s2)cc1 (centres unmarked)	> 500
COc1cc2nc(NC(=O)C(Oc3ccc(C#N)cc3)c3ccc(C(=O)N4CCN(C)CC4)cc3)sc2cc1OC (centres unmarked)	200 to 500
COCCOc1ccc(OC(C(=O)Nc2nc3cc(OC)c(OC)cc3s2)c2ccc(C#N)cc2)cc1 (centres unmarked)	50 to 100
COc1ccc(S(=O)(=O)c2ccc(C(Oc3ccc(C#N)cc3)C(=O)Nc3nc4cc(OC)c(OC)cc4s3)cc2)cc1 (centres unmarked)	100 to 200
COc1cc2nc(NC(=O)C(Oc3ccc(C#N)cc3)c3cccc(S(=O)(=O)c4ccc(F)cc4)c3)sc2cc1OC (centres unmarked)	200 to 500
CCS(=O)(=O)c1ccc(CC(=O)Nc2nc3cc4c(cc3s2)OCCO4)cc1	> 500
CCS(=O)(=O)c1ccc(C(Oc2ccc(C#N)cc2)C(=O)Nc2nc3cc(Cl)c(OC)cc3s2)cc1 (centres unmarked)	200 to 500
CCS(=O)(=O)c1ccc(CC(=O)Nc2nc3cc4c(cc3s2)OCO4)cc1	> 500
CCS(=O)(=O)c1ccc(C(Nc2cccc(OC)c2)C(=O)Nc2nc3cc(OC)c(OC)cc3s2)cc1 (centres unmarked)	> 500
CCOc1ccc(C(Oc2ccc(C#N)cc2)C(=O)Nc2nc3cc(OC)c(OC)cc3s2)cc1 (centres unmarked)	< 50
CCS(=O)(=O)c1ccc(C(OCC2CCOCC2)C(=O)Nc2nc3cc(OC)c(OC)cc3s2)cc1 (centres unmarked)	> 500
CCS(=O)(=O)c1ccc(C(Oc2ccc(OC(F)(F)F)cc2)C(=O)Nc2nc3cc(OC)c(OC)cc3s2)cc1 (centres unmarked)	200 to 500
COc1cc2nc(NC(=O)C(Oc3ccc(C(=O)N4CCN(C)CC4)cc3)c3ccc(C#N)cc3)sc2cc1OC (centres unmarked)	50 to 100
CCS(=O)(=O)c1ccc(C(OCCC(C)C)C(=O)Nc2nc3cc(OC)c(OC)cc3s2)cc1 (centres unmarked)	> 500
COc1ccc(OC(C(=O)Nc2nc3cc(OC)c(OC)cc3s2)c2ccccc2S(=O)(=O)c2ccc(F)cc2)cc1 (centres unmarked)	> 500
CCS(=O)(=O)c1ccc([C@H](Oc2ccc(C#N)cc2)C(=O)Nc2nc3cc(OC)c(OC)cc3s2)cc1	200 to 500
COc1ccc(S(=O)(=O)c2ccccc2C(Oc2ccc(C#N)cc2)C(=O)Nc2nc3cc(OC)c(OC)cc3s2)cc1 (centres unmarked)	100 to 200
CCS(=O)(=O)c1ccc(C(OCc2ccccc2)C(=O)Nc2nc3cc(OC)c(OC)cc3s2)cc1 (centres unmarked)	> 500
COc1cc2nc(NC(=O)C(Oc3ccc(C#N)cc3)c3ccc(-c4nnn[nH]4)cc3)sc2cc1OC (centres unmarked)	> 500
COc1cc2nc(NC(=O)C(Oc3ccc(C#N)cc3)c3ccc(S(=O)(=O)C(C)C)cc3)sc2cc1OC (centres unmarked)	< 50
CCS(=O)(=O)c1ccc(C(Oc2cccc(C#N)c2)C(=O)Nc2nc3cc(OC)c(OC)cc3s2)cc1 (centres unmarked)	> 500
COc1cc2nc(NC(=O)Cc3cccc(S(=O)(=O)c4ccc(F)cc4)c3)sc2cc1OC	> 500
COc1cc2nc(NC(=O)C(Oc3ccc(C#N)cc3)c3ccc(C(=O)NCCN4CCCCC4)cc3)oc2cc1OC (centres unmarked)	> 500
CCS(=O)(=O)c1ccc(C(Oc2ccc(C#N)cc2)C(=O)Nc2nc3cc(OC)c(OC)cc3n2C)cc1 (centres unmarked)	> 500
CCS(=O)(=O)c1ccc(C(Oc2cccc3ccccc23)C(=O)Nc2nc3cc(OC)c(OC)cc3s2)cc1 (centres unmarked)	> 500
CCS(=O)(=O)c1ccc(C(OC(C)C)C(=O)Nc2nc3cc(OC)c(OC)cc3s2)cc1 (centres unmarked)	> 500
CCS(=O)(=O)c1ccc(C(Oc2ccc(OC)cc2)C(=O)Nc2nc3cc4c(cc3s2)OCO4)cc1 (centres unmarked)	> 500

Now from value to compound:

EC50 [nM]	Structure (SMILES)
> 500	CCCCc1ccc(OC(C(=O)Nc2nc3cc(OC)c(OC)cc3s2)c2ccc(S(=O)(=O)CC)cc2)cc1 (centres unmarked)
200 to 500	CCS(=O)(=O)c1ccc(C(Oc2ccc(C(F)(F)F)cc2)C(=O)Nc2nc3cc(OC)c(OC)cc3s2)cc1 (centres unmarked)
200 to 500	CCS(=O)(=O)c1ccc(C(Oc2ccc(C#N)cc2)C(=O)Nc2nc3cc(OCCO)c(OC)cc3s2)cc1 (centres unmarked)
50 to 100	CCS(=O)(=O)c1ccc(C(Oc2ccc(C#N)cc2)C(=O)Nc2nc3ccc(OC)c(OC)c3s2)cc1 (centres unmarked)
> 500	CCS(=O)(=O)c1ccc(C(OC)C(=O)Nc2nc3cc(OC)c(OC)cc3s2)cc1 (centres unmarked)
> 500	CCS(=O)(=O)c1ccc(C(Oc2ccccc2Cl)C(=O)Nc2nc3cc(OC)c(OC)cc3s2)cc1 (centres unmarked)
> 500	CCS(=O)(=O)c1ccc(CC(=O)Nc2nc3ccc(N4CCN(C)CC4)cc3s2)cc1
> 500	COc1ccc(OC(C(=O)Nc2nc3cc(OC)c(OC)cc3s2)c2ccccc2S(=O)(=O)c2ccc(OC)cc2)cc1 (centres unmarked)
> 500	COC(=O)c1ccc(CC(=O)Nc2nc3cc(OC)c(OC)cc3s2)cc1
200 to 500	CCCc1ccc(OC(C(=O)Nc2nc3cc(OC)c(OC)cc3s2)c2ccc(S(=O)(=O)CC)cc2)cc1 (centres unmarked)
200 to 500	COc1cc2nc(NC(=O)C(Oc3ccc(C#N)cc3)c3cccc(S(=O)(=O)c4ccc(Cl)cc4)c3)sc2cc1OC (centres unmarked)
< 50	COc1cc2nc(NC(=O)C(Oc3ccc(C#N)cc3)c3ccc([N+](=O)[O-])cc3)sc2cc1OC (centres unmarked)
> 500	CCS(=O)(=O)c1ccc(C(Oc2cccc(Cl)c2)C(=O)Nc2nc3cc(OC)c(OC)cc3s2)cc1 (centres unmarked)
> 500	COc1cc2nc(NC(=O)Cc3ccc(S(=O)(=O)N(C)C)cc3)sc2cc1OC
< 50	CCS(=O)(=O)c1ccc(C(Oc2ccc(C#N)cc2)C(=O)Nc2nc3cc(OCCF)c(OC)cc3s2)cc1 (centres unmarked)
> 500	CCS(=O)(=O)c1ccc(C(Oc2ccc(C#N)cc2)C(=O)Nc2nc3nc(OCCOC)c(OC)cc3s2)cc1 (centres unmarked)

EC50 [nM]	Structure (SMILES)
> 500	COCCS(=O)(=O)c1ccc(CC(=O)Nc2nc3cc(OC)c(OC)cc3s2)cc1
> 500	COc1cc2nc(NC(=O)Cc3ccc(S(=O)(=O)C4CCCC4)cc3)sc2cc1OC
50 to 100	COCCNC(=O)c1ccc(C(Oc2ccc(C#N)cc2)C(=O)Nc2nc3cc(OC)c(OC)cc3s2)cc1 (centres unmarked)
> 500	COc1cc2nc(NC(=O)Cc3cccc(C(=O)N(C)C)c3)sc2cc1OC
50 to 100	COc1cc2nc(NC(=O)C(Oc3ccc(C#N)cc3)c3ccc(C)cc3)sc2cc1OC (centres unmarked)
> 500	CCS(=O)(=O)c1ccc(C(C(=O)Nc2nc3cc(OC)c(OC)cc3s2)C2CCCC2)cc1 (centres unmarked)
50 to 100	COc1cc2nc(NC(=O)C(Oc3ccc(C#N)cc3)c3cccc(S(=O)(=O)C(C)(C)C)c3)sc2cc1OC (centres unmarked)
> 500	CCS(=O)(=O)c1ccc(C(Oc2ccc(C#N)cc2)C(=O)Nc2nc3ccc(OCCN4CCOCC4)cc3s2)cc1 (centres unmarked)
> 500	COCCNC(=O)c1ccc(OC(C(=O)Nc2nc3cc(OC)c(OC)cc3s2)c2ccc(C#N)cc2)cc1 (centres unmarked)
< 50	CCCCS(=O)(=O)c1ccc(C(Oc2ccc(C#N)cc2)C(=O)Nc2nc3cc(OC)c(OC)cc3s2)cc1 (centres unmarked)
> 500	CCS(=O)(=O)c1ccc(C(OC2CCCCC2)C(=O)Nc2nc3cc(OC)c(OC)cc3s2)cc1 (centres unmarked)
> 500	CCS(=O)(=O)c1ccc(C(Oc2ccc(OC)cc2)C(=O)Nc2nc3c(OC)ccc(OC)c3s2)cc1 (centres unmarked)
> 500	CCS(=O)(=O)c1ccc(CC(=O)Nc2nc3cc(OC)c(OC)cc3o2)cc1
> 500	CCS(=O)(=O)c1cccc(CC(=O)Nc2nc3cc(OC)c(OC)cc3s2)c1
> 500	COc1cc2nc(NC(=O)Cc3cccc(S(=O)(=O)C(C)C)c3)sc2cc1OC
200 to 500	CCS(=O)(=O)c1ccc(C(Oc2ccc(N(C)C)cc2)C(=O)Nc2nc3cc(OC)c(OC)cc3s2)cc1 (centres unmarked)
